13 compounds from PubChem BioAssay (NCI) can be followed below.

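Protocol summary: plate cells (96-well), add compound at 5 concentrations, incubate 48 h, interpolate endpoints linearly. GI50 is the concentration that inhibits growth by half. TGI: total growth inhibition.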 Bounds are passed on as bounds.

Test systems include HCC-2998 colon; HCT-116 colon; HCT-15 colon; IGROV1 ovarian; OVCAR-3 ovarian; SF-539 CNS; SK-OV-3 ovarian; U251 CNS; UACC-257 melanoma; 786-0 renal; PC-3 prostate; HS 578T breast.
What all share (test): inhibition of tumour cell growth, NCI panel, 48 h

Take `C/C(=N\NC(=O)c1ccccc1O)c1cccc(/C(C)=N/NC(=O)c2ccccc2O)n1.O=S(=O)([O-])[O-].[Fe+2]`: the TGI in the assay with HCC-2998 colon, with HCT-116 colon, in the assay with HCT-15 colon, with IGROV1 ovarian, with OVCAR-3 ovarian and with SF-539 CNS was over 100 µM in each case. Besides, the TGI in the assay with SK-OV-3 ovarian, with U251 CNS and in the assay on UACC-257 melanoma was over 100 µM throughout. For the same compound, the GI50 with HCT-116 colon was 69.2 µM; in the assay on IGROV1 ovarian, 47.7 µM; in the assay with OVCAR-3 ovarian, over 100 µM; in the assay on SF-539 CNS, over 100 µM; in the assay with U251 CNS, 59.1 µM; in the assay with UACC-257 melanoma, over 100 µM.

In the case of `Cc1ccc2c(=O)cc(-c3ccc(C)s3)[nH]c2n1`, the TGI in the assay with 786-0 renal is over 100 µM; in the assay with HCC-2998 colon, 9.82 µM; in the assay with HCT-116 colon, over 100 µM; in the assay with HCT-15 colon, over 37.5 µM; in the assay on IGROV1 ovarian it was over 50.4 µM; with OVCAR-3 ovarian, over 46.8 µM. For the same compound, the TGI in the assay on PC-3 prostate was over 44.9 µM; with SF-539 CNS, 0.972 µM; with SK-OV-3 ovarian, over 100 µM; in the assay on U251 CNS, over 55.2 µM; with UACC-257 melanoma it was over 100 µM.

As for `COc1cc2c(c(OC)c1OC)-c1ccc(SC)c(=O)cc1[C@@H](O)CC2`, the TGI in the assay on 786-0 renal, with HCC-2998 colon, in the assay with HCT-116 colon and with UACC-257 melanoma was over 100 µM throughout. Moreover, the GI50 in the assay on OVCAR-3 ovarian was 0.000322 µM; in the assay on SK-OV-3 ovarian it was over 100 µM.

`O=C(N/N=C/c1cc(Br)cc(Br)c1[O-])c1ccccc1O.O=C(N/N=C/c1cc(Br)cc(Br)c1[O-])c1ccccc1O.[Zn+2]`: the TGI amounted to 3.42 µM in the assay on HCC-2998 colon; 13 µM with HCT-116 colon; 14.4 µM with HCT-15 colon; 5.55 µM with IGROV1 ovarian; 0.742 µM in the assay on OVCAR-3 ovarian; 10.7 µM in the assay with SF-539 CNS. Besides, the figures for the TGI with SK-OV-3 ovarian, with U251 CNS and in the assay on UACC-257 melanoma were 8.49 µM, 2.01 µM and 10.6 µM, respectively.

Consider `CCOC(=O)/C(=N/Nc1ccccc1)N1C(=S)C=C(C)NN(C)C1=S`, for which the TGI in the assay on HCC-2998 colon, with HCT-116 colon, in the assay on HCT-15 colon, in the assay on HS 578T breast, in the assay on IGROV1 ovarian and with OVCAR-3 ovarian was over 100 µM in each case. Also, the TGI was over 100 µM in the assay on SF-539 CNS, over 100 µM in the assay with SK-OV-3 ovarian, 50.9 µM in the assay on U251 CNS and over 100 µM in the assay on UACC-257 melanoma.

Consider `O=C(c1ccccc1)N1CCC(CC2(c3cc4ccccc4[nH]3)OCCO2)CC1`, for which the TGI is 34.7 µM with 786-0 renal; over 100 µM with HCT-116 colon; over 100 µM with HCT-15 colon; over 100 µM in the assay with IGROV1 ovarian; over 100 µM in the assay with OVCAR-3 ovarian; over 100 µM in the assay on PC-3 prostate. For the same compound, the TGI was over 100 µM in the assay on SF-539 CNS, over 100 µM in the assay with SK-OV-3 ovarian, over 100 µM in the assay on U251 CNS and 51.9 µM with UACC-257 melanoma.

Consider `COc1nc(N)c(NC(C)=O)c(=O)n1C`, for which the TGI with HCC-2998 colon, with HCT-116 colon, with HCT-15 colon, with IGROV1 ovarian, with SF-539 CNS and with U251 CNS was over 100 µM each time. In the assay on UACC-257 melanoma, this compound showed a TGI of over 100 µM.

Turning to `C=C(C(=O)OC)[C@@H]1C[C@@H](OC(C)=O)C2=C[C@H](C[C@@]3(C)O[C@@H]3C3=CC(C)=C(O3)[C@H]1OC(C)=O)OC2=O`, the TGI in the assay with 786-0 renal is 49.1 µM; in the assay with HCC-2998 colon, 43 µM; in the assay on HCT-116 colon, 24.3 µM; in the assay with HCT-15 colon it was over 100 µM; in the assay on IGROV1 ovarian, 57.1 µM; in the assay with PC-3 prostate, over 100 µM. Also, the TGI was 79 µM in the assay with SF-539 CNS, over 100 µM in the assay on SK-OV-3 ovarian, 71.1 µM with U251 CNS and 44.3 µM in the assay on UACC-257 melanoma.

On to `COc1cc(C2(c3ncc[nH]3)SSSCC2O)ccc1O` (stereo not given), for which the TGI in the assay with HCC-2998 colon was 77 µM; in the assay with HCT-116 colon it was over 100 µM; in the assay on HCT-15 colon it was over 100 µM; in the assay with IGROV1 ovarian, over 100 µM; with OVCAR-3 ovarian it was over 71.7 µM; with SF-539 CNS, over 100 µM. Moreover, the TGI in the assay with SK-OV-3 ovarian was over 100 µM; in the assay with U251 CNS it was over 100 µM; with UACC-257 melanoma, 28.5 µM.

For the compound `CC1C2C=C(O)C(=O)C(C2=O)C1c1ccccc1` (stereo not given), the TGI with 786-0 renal, with HCC-2998 colon, in the assay with HCT-15 colon, with IGROV1 ovarian, with OVCAR-3 ovarian and in the assay with SF-539 CNS was over 100 µM throughout. Moreover, the TGI in the assay with SK-OV-3 ovarian, in the assay with U251 CNS and in the assay with UACC-257 melanoma was over 100 µM throughout.

Consider `CC(=O)OCC(=O)OC[C@H](OCc1ccccc1)[C@@H]1[C@H](OC(C)=O)C(=O)N1Cc1ccccc1`, for which the TGI in the assay on 786-0 renal, in the assay on HCT-116 colon, in the assay with HCT-15 colon, with HS 578T breast, in the assay on IGROV1 ovarian and in the assay with OVCAR-3 ovarian was over 100 µM each time. For the same compound, the TGI in the assay with PC-3 prostate, in the assay with SK-OV-3 ovarian, with U251 CNS and with UACC-257 melanoma was over 100 µM in each case.

Consider `COC(=O)/C=C1/OC(c2ccccc2)=C(C)C1=O`, for which the TGI with 786-0 renal was 22.3 µM; with HCC-2998 colon, 30.2 µM; in the assay on HCT-116 colon, 15.4 µM; in the assay on HCT-15 colon, 17 µM; in the assay with HS 578T breast, 83.9 µM; in the assay on IGROV1 ovarian it was 28.4 µM. Besides, the TGI with OVCAR-3 ovarian came out at 41.9 µM; in the assay with SF-539 CNS it was 32.2 µM; in the assay on SK-OV-3 ovarian, 22.6 µM; in the assay with U251 CNS, 27.1 µM.

Consider `CCCCCCCCCOCC(COP(=O)([O-])OCC[N+](C)(C)C)OC` (stereo not given), for which the TGI in the assay on HCC-2998 colon, in the assay on HCT-116 colon, with HCT-15 colon, with IGROV1 ovarian, in the assay on OVCAR-3 ovarian and in the assay on SF-539 CNS was over 100 µM throughout. Besides, the TGI in the assay on SK-OV-3 ovarian, in the assay on U251 CNS and with UACC-257 melanoma was over 100 µM throughout.
